This test addresses T1, HCV polymerase (Hepatitis C virus genotype 1b, UniProt P26663).
T1 construct: a region encoding NS5B (J Virol 1991 March, 65(3), 1105-13, 544 amino acids after deletion of 47 amino acids on the C-terminal); 6xHis (C); made in house; host or cells: Escherichia coli
In words: biochemical. Also noted: species or system HCV BK strain. The gist of the method: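 His-tagged NS5B (BK strain, 47-aa C-terminal deletion, E. coli-expressed) at 0.5 μg/ml copied 5 μg/ml run-off RNA bearing the HCV 3′ UTR with 2 μM UTP plus [3H]UTP, 50 μM ATP/GTP, in pH 7.5 Tris with 5 mM MgCl2, 25 °C, 90 min. TCA-precipitated RNA was counted and IC50 calculated.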

SMILES strings stand for the structures. Where a name gives a salt, the structure may show the parent alone. Where only a bound is given, the exact number is not on record here.

T1 sequence (P26663 2420-2963): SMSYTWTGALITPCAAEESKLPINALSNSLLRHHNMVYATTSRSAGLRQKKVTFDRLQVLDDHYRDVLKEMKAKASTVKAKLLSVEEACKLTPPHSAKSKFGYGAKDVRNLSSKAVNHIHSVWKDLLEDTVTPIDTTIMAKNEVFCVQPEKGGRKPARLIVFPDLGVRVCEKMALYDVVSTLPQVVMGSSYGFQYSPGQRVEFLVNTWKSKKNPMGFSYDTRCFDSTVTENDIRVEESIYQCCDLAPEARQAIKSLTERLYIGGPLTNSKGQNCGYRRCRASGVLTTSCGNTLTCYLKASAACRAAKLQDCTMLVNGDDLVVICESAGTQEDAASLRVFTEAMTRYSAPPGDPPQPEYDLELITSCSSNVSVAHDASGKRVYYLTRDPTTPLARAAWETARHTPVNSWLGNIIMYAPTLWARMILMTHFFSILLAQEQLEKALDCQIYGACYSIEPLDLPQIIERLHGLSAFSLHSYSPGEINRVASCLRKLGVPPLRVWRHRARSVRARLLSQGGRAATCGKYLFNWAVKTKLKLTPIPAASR

Turning to `CC(C)c1ccc2c(c1)N(CCN1CCCCC1)CCn1c-2c(C2CCCCC2)c2ccc(C(=O)O)cc21` [Example 1-296, 13-cyclohexyl-3-isopropyl-5-[2-(piperidin-1-yl)ethyl]-6,7-dihydro-5H-benzo[5,6][1,4]diazepino[7,1-a]indole-10-carboxylic acid dihydrochloride], the IC50 is less than 100 nM. As to `CSc1ccc2c(c1)N(CCCN1CCCCC1)CCn1c-2c(C2CCCCC2)c2ccc(C(=O)O)cc21` [Example 1-297, 13-cyclohexyl-3-methylsulfanyl-5-[3-(piperidin-1-yl)propyl]-6,7-dihydro-5H-benzo[5,6][1,4]diazepino[7,1-a]indole-10-carboxylic acid dihydrochloride], the IC50 is less than 100 nM.

`Cc1ccc2c(c1)N(CCCN1CCCCC1)CCn1c-2c(C2CCCCC2)c2ccc(C(=O)O)cc21` [Example 1-298, 13-cyclohexyl-3-methyl-5-[3-(piperidin-1-yl)propyl]-6,7-dihydro-5H-benzo[5,6][1,4]diazepino[7,1-a]indole-10-carboxylic acid dihydrochloride] came in with an IC50 of less than 100 nM.

Take `Cc1ccc2c(c1)N(CCCN1CCCC1)CCn1c-2c(C2CCCCC2)c2ccc(C(=O)O)cc21` [Example 1-299, 13-cyclohexyl-3-methyl-5-[3-(pyrrolidin-1-yl)propyl]-6,7-dihydro-5H-benzo[5,6][1,4]diazepino[7,1-a]indole-10-carboxylic acid dihydrochloride]: the IC50 is less than 100 nM. In the case of `Cc1ccc2c(c1)N(CCCN1CCCCCC1)CCn1c-2c(C2CCCCC2)c2ccc(C(=O)O)cc21` [Example 1-300, 5-[3-(azepan-1-yl)propyl]-13-cyclohexyl-3-methyl-6,7-dihydro-5H-benzo[5,6][1,4]diazepino[7,1-a]indole-10-carboxylic acid dihydrochloride] it was less than 100 nM; in that of `Cc1ccc2c(c1)N(CCCN(C)C)CCn1c-2c(C2CCCCC2)c2ccc(C(=O)O)cc21` [Example 1-301, 13-cyclohexyl-5-(3-dimethylaminopropyl)-3-methyl-6,7-dihydro-5H-benzo[5,6][1,4]diazepino[7,1-a]indole-10-carboxylic acid dihydrochloride], less than 100 nM; in that of `CCN(CC)CCCN1CCn2c(c(C3CCCCC3)c3ccc(C(=O)O)cc32)-c2ccc(Cl)cc21` [Example 1-302, 3-chloro-13-cyclohexyl-5-(3-diethylaminopropyl)-6,7-dihydro-5H-benzo[5,6][1,4]diazepino[7,1-a]indole-10-carboxylic acid dihydrochloride], less than 100 nM.

Compound `CSc1ccc2c(c1)N(CCN1CCCC1)CCn1c-2c(C2CCCCC2)c2ccc(C(=O)O)cc21` [Example 1-303, 13-cyclohexyl-3-methylsulfanyl-5-[2-(pyrrolidin-1-yl)ethyl]-6,7-dihydro-5H-benzo[5,6][1,4]diazepino[7,1-a]indole-10-carboxylic acid dihydrochloride] registered an IC50 of less than 100 nM. As for `COCC1CCCCN1CCN1CCn2c(c(C3CCCCC3)c3ccc(C(=O)O)cc32)-c2ccc(Cl)cc21` (stereo not shown) [Example 1-304, 3-chloro-13-cyclohexyl-5-[2-(2-methoxymethylpiperidin-1-yl)ethyl]-6,7-dihydro-5H-benzo[5,6][1,4]diazepino[7,1-a]indole-10-carboxylic acid dihydrochloride], the IC50 is less than 100 nM. The figure for `COCC1CCCCN1CCN1CCn2c(c(C3CCCCC3)c3ccc(C(=O)O)cc32)-c2ccc(C)cc21` (stereo not shown) [Example 1-305, 13-cyclohexyl-5-[2-(2-methoxymethylpiperidin-1-yl)ethyl]-3-methyl-6,7-dihydro-5H-benzo[5,6][1,4]diazepino[7,1-a]indole-10-carboxylic acid dihydrochloride] is less than 100 nM; for `COCCC1CCCN(CCN2CCn3c(c(C4CCCCC4)c4ccc(C(=O)O)cc43)-c3ccccc32)C1` (stereo not shown) [Example 1-306, 13-cyclohexyl-5-{2-[3-(2-methoxyethyl)piperidin-1-yl]ethyl}-6,7-dihydro-5H-benzo[5,6][1,4]diazepino[7,1-a]indole-10-carboxylic acid dihydrochloride] it is less than 100 nM; for `COCCC1CCCN(CCN2CCn3c(c(C4CCCCC4)c4ccc(C(=O)O)cc43)-c3ccc(Cl)cc32)C1` (stereo not shown) [Example 1-307, 3-chloro-13-cyclohexyl-5-{2-[3-(2-methoxyethyl)piperidin-1-yl]ethyl}-6,7-dihydro-5H-benzo[5,6][1,4]diazepino[7,1-a]indole-10-carboxylic acid dihydrochloride] it is less than 100 nM. `COCCC1CCCN(CCN2CCn3c(c(C4CCCCC4)c4ccc(C(=O)O)cc43)-c3ccc(C)cc32)C1` (stereo not shown) [Example 1-308, 13-cyclohexyl-5-{2-[3-(2-methoxyethyl)piperidin-1-yl]ethyl}-3-methyl-6,7-dihydro-5H-benzo[5,6][1,4]diazepino[7,1-a]indole-10-carboxylic acid dihydrochloride]: the IC50 was less than 100 nM. `CN(C)CCN1CCn2c(c(C3CCCCC3)c3ccc(C(=O)O)cc32)-c2ccc(OCc3cc(S(C)(=O)=O)ccc3N3CCOCC3)cc21` [Example 1-309, 13-cyclohexyl-5-(2-dimethylaminoethyl)-3-[5-methanesulfonyl-2-(morpholin-4-yl)benzyloxy]-6,7-dihydro-5H-benzo[5,6][1,4]diazepino[7,1-a]indole-10-carboxylic acid trihydrochloride] came in with an IC50 of less than 100 nM. Regarding `COC(=O)Oc1ccc2c(c1)N(CCN(C)C)CCn1c-2c(C2CCCCC2)c2ccc(C(=O)O)cc21` [Example 1-310, 13-cyclohexyl-5-(2-dimethylaminoethyl)-3-methoxycarbonyloxy-6,7-dihydro-5H-benzo[5,6][1,4]diazepino[7,1-a]indole-10-carboxylic acid dihydrochloride], the IC50 is less than 100 nM. In the case of `CN(C)CCN1CCn2c(c(C3CCCCC3)c3ccc(C(=O)O)cc32)-c2ccc(Oc3ccccc3)cc21` [Example 1-311, 13-cyclohexyl-5-(2-dimethylaminoethyl)-3-phenoxy-6,7-dihydro-5H-benzo[5,6][1,4]diazepino[7,1-a]indole-10-carboxylic acid dihydrochloride] it was less than 100 nM; in that of `CN1CCCCC1CCN1CCn2c(c(C3CCCCC3)c3ccc(C(=O)O)cc32)-c2ccc(Cl)cc21` (stereo not shown) [Example 1-312, 3-chloro-13-cyclohexyl-5-[2-(1-methylpiperidin-2-yl)ethyl]-6,7-dihydro-5H-benzo[5,6][1,4]diazepino[7,1-a]indole-10-carboxylic acid dihydrochloride], less than 100 nM; in that of `COCC1CCN(CCN2CCn3c(c(C4CCCCC4)c4ccc(C(=O)O)cc43)-c3ccc(Cl)cc32)CC1` [Example 1-314, 3-chloro-13-cyclohexyl-5-[2-(4-methoxymethylpiperidin-1-yl)ethyl]-6,7-dihydro-5H-benzo[5,6][1,4]diazepino[7,1-a]indole-10-carboxylic acid dihydrochloride], less than 100 nM. With `COCC1CCN(CCN2CCn3c(c(C4CCCCC4)c4ccc(C(=O)O)cc43)-c3ccc(C)cc32)CC1` [Example 1-315, 13-cyclohexyl-5-[2-(4-methoxymethylpiperidin-1-yl)ethyl]-3-methyl-6,7-dihydro-5H-benzo[5,6][1,4]diazepino[7,1-a]indole-10-carboxylic acid dihydrochloride], the IC50 is less than 100 nM.

With `COC[C@H]1CCCN1CCN1CCn2c(c(C3CCCCC3)c3ccc(C(=O)O)cc32)-c2ccccc21` [Example 1-316, 13-cyclohexyl-5-[2-((R)-2-methoxymethylpyrrolidin-1-yl)ethyl]-6,7-dihydro-5H-benzo[5,6][1,4]diazepino[7,1-a]indole-10-carboxylic acid dihydrochloride], the IC50 was less than 100 nM.

`CCN1CCC(OCCN2CCn3c(c(C4CCCCC4)c4ccc(C(=O)O)cc43)-c3ccc(Cl)cc32)CC1` [Example 1-317, 3-chloro-13-cyclohexyl-5-[2-(1-ethylpiperidin-4-yloxy)ethyl]-6,7-dihydro-5H-benzo[5,6][1,4]diazepino[7,1-a]indole-10-carboxylic acid dihydrochloride] returned an IC50 of less than 100 nM.

Consider `CC(C)N1CCC(OCCN2CCn3c(c(C4CCCCC4)c4ccc(C(=O)O)cc43)-c3ccc(Cl)cc32)CC1` [Example 1-318, 3-chloro-13-cyclohexyl-5-[2-(1-isopropylpiperidin-4-yloxy)ethyl]-6,7-dihydro-5H-benzo[5,6][1,4]diazepino[7,1-a]indole-10-carboxylic acid dihydrochloride], for which the IC50 was less than 100 nM. `CN(CCN1CCn2c(c(C3CCCCC3)c3ccc(C(=O)O)cc32)-c2ccccc21)C1CCCC1` [Example 1-319, 13-cyclohexyl-5-[2-(N-cyclopentyl-N-methylamino)ethyl]-6,7-dihydro-5H-benzo[5,6][1,4]diazepino[7,1-a]indole-10-carboxylic acid] had an IC50 of less than 100 nM. `CC1CCCN(CCCN2CCn3c(c(C4CCCCC4)c4ccc(C(=O)O)cc43)-c3ccc(Cl)cc32)C1` (stereo not shown) [Example 1-320, 3-chloro-13-cyclohexyl-5-[3-(3-methylpiperidin-1-yl)propyl]-6,7-dihydro-5H-benzo[5,6][1,4]diazepino[7,1-a]indole-10-carboxylic acid] registered an IC50 of less than 100 nM. The figure for `CN(CCN1CCn2c(c(C3CCCCC3)c3ccc(C(=O)O)cc32)-c2ccccc21)C1CCOC1` (stereo not shown) [Example 1-321, 13-cyclohexyl-5-{2-[N-methyl-N-(tetrahydrofuran-3-yl)amino]ethyl}-6,7-dihydro-5H-benzo[5,6][1,4]diazepino[7,1-a]indole-10-carboxylic acid] is less than 100 nM.

The values above are taken from patent US20070049593A1 (priority 2004, published 2007).
